Read-outs that look alike come from different tables or passages of the source. Values belong to the compound of their own block, whether it stands above or below them.
Key:
[1] = system: L1210 leukemia cells; test: In vitro IC50, suspension culture, cell count by Coulter Counter; assay type: cell-based; conditions: compound present for 48 hours (four cell doubling times), read-out: IC50 L1210 Mouse Lymphoma
Experimental: (§1) Although these examples were not tested in animal models, their similar efficacy in human melanoma and differentiated carcinomas is predicated from the fact they had similar in vitro results compared to T-5. The in vitro tests were run as follows, to ascertain the IC₅₀ concentrations. (IC₅₀ is the in vitro concentration that kills one-half the cell line against which the compound is tested. The smaller the concentration, the higher the toxicity.)
(§2) For the IC₅₀ values for the human lung carcinoma line, an adhering monolayer culture was used. Two days prior to plating, a number of cells obtained from the American Type Tissue Culture Collection was selected to grow as a stock, the number being that which would ensure the cells had not reached their plateau at the time of the in vitro test. On day 1 of the assay, asynchronous exponentially growing cells from this stock were suspended in a conventional complete medium comprising RPMI 1640 medium supplemented with 5% (v/v) fetal calf serum and 5% (v/v) NV serum obtained from Collaborative Research, and 20mM HEPES buffer, i.e., 4-(2-hydroxyethyl)-1-piperazineethanesulfonic acid. This was plated into a conventional 96-well tissue culture plate using a Cetus/Perkin Elmer automated pipetting device with a dual supply manifold. The cells were then incubated for 48 hours at 37°C in a humidified atmosphere containing 5% CO₂. Selected cells were then incubated under red light for 3 hours in the presence of varying amounts of the compound of interest at 37°C in a humidified incubator containing 5% CO₂. Compounds were tested over a 6-log range of concentrations. The drug treated cells were then rinsed one time with complete medium as set forth above, and incubated in complete medium the length of time appropriate to achieve four cell-doubling times (roughly 7 days for these cell lines). The medium was removed and the cells stained for 1-2 hours at 37°C with 0.1% (w/v) neutral red dye obtained from Eastman Kodak Co., dissolved in phosphate buffered saline (PBS) (without calcium or magnesium cations) at a pH of 6.85. The cells were rinsed twice with the same PBS and dried. Excess neutral red dye was eluted from each well with 50% (v/v) ethanol in 1% (v/v) aqueous glacial acetic acid. The absorbency of each well was quantitated using a Perkin-Elmer absorbence densitameter set at 540 nm. The percent of inhibition of cell growth for a given concentration of compound was calculated using the equation: [formula] where At = absorbence of the cells treated with the candidate drug, Au = absorbence of the control treated with solvent only, and Ab = absorbence of the media and well only (background). […] The plotted data was then fitted to the curve for the function: F(x) = 100 - [100(X/A)^B/(1+(X/A)^B)] where x = the concentration of the test compound, A = the IC₅₀ value (50% inhibition on the plot) and B = the exponent of the fitted function.
To determine the IC₅₀ for the L1210 leukemia cells, a suspension culture was used. The procedure for the monolayer culture was followed, except that the cells were seeded at a density of 3 X 10⁴ cells/ml in the RPMI 1640 medium supplemented this time with 10% (v/v) NV SERUM, no calf serum, and 20mM HEPES buffer, with the compound of interest already added. These were added immediately to a conventional 24-well culture plate and incubated for a four cell doubling time (48 hours for this cell line). Cell numbers were quantitated using the Model ZF Coulter Counter. F(x) was obtained from the equation: [formula] where Nt = number of treated cells detected, never less than No, Nu = number of cells detected in the control that were untreated except for the solvent, and No = number of cells initially seeded.

[2] = system: human lung carcinoma line; test: In vitro IC50, adhering monolayer culture, neutral red staining; assay type: cell-based; conditions: 3 hours drug exposure under red light, then about 7 days growth, read-out: IC50 Lung Adeno-carcinoma
Experimental: as §1, §2

[3] = system: MB49 tumor cells; test: Mouse bladder carcinoma, tumor cells mixed with drug before instillation into the bladder (bladder weight); assay type: in vivo; conditions: 21 days after tumor initiation; from mean bladder weights vs controls; MB49 cells (4 X 10⁶) mixed with 0.05 mg/ml drug before instillation into the mouse bladder
Experimental: These values were calculated by dividing the difference between the mean weight of bladders from controls (water-treated animals) and mean weight of bladders of drug-treated animals by the mean weight of bladders from control animals and multiplying this fraction by 100. (In this experiment, the drug was administered by mixing the MB49 tumor cells (4 X 10⁶) with 0.05 mg/ml of the drug prior to instillation of the cell suspension into the mouse bladder.)

[4] = system: human melanoma cell line, LOX; test: Melanoma test using nude mice protocol (survival, T/C); assay type: in vivo
Excerpt: The present invention will now be described by way of example with reference to the accompanying drawings in which: Figures 1-4 are survival plots of cancer-bearing mice treated with the dyes of this invention, compared to a control group of such mice left untreated. In these plots, "% survival" means the percentage of the total group (treated "T" or control "C") still surviving on the day in question. The 50% data point is selected for the T/C calculation, as being the point that is statistically meaningful. Effectiveness against human cancer can be inferred by tests in the nude mouse-human xenograft model, hereinafter "nude mice protocol". […] 899-903, especially p. 889 (April 1985). Nude mice, that is, those deficient in thymic functions, bred and maintained in pathogen free conditions [see J. Natl. Cancer Inst. 51:615-619 (1973)] were used in in vivo experiments. For each experiment, nude mice from the same litter and of the same sex which were over 3 months old and weighed at least 25g were injected or implanted with cancer cells. A human melanoma cell line, LOX, was used that grows rapidly when inoculated into the peritoneal cavity of the athymic mice. Tumors which had been passaged subcutaneously in athymic mice were excised under sterile conditions and converted to a single cell suspension using a metal grid with a 4 mm mesh. Red blood cells were then lysed by incubation with 0.17 molar ammonium chloride at 4°C for 30 minutes. Cells were then scored for viability with trypan blue and 5 million viable cells made up in 0.2 ml of Dulbecco modified Eagles' medium (DME) were injected intraperitoneally (IP) into a group of male athymic Swiss nu/nu mice (day 0). The mice were then randomly allocated into treatment and control groups (5% dextrose) and treatment, by intraperitoneal injection commenced the following day. In Example 6, five mice received 5 mg/kg of the drug T-5, Table I, administered Monday, Wednesday & Friday of each week for a total of 11 injections. Five mice received the same volume of the control 5% dextrose solution on the same days. […]

[5] = system: human ovarian carcinoma line OVCAR-3; test: Ovarian carcinoma (OVCAR-3) test using nude mice protocol (survival, T/C); assay type: in vivo; conditions: for T/C: female nude mice, OVCAR-3 xenograft, three injections per week for 6 weeks (Fig. 3)
Excerpt: The present invention will now be described by way of example with reference to the accompanying drawings in which: Figures 1-4 are survival plots of cancer-bearing mice treated with the dyes of this invention, compared to a control group of such mice left untreated. In these plots, "% survival" means the percentage of the total group (treated "T" or control "C") still surviving on the day in question. The 50% data point is selected for the T/C calculation, as being the point that is statistically meaningful. Nude mice, that is, those deficient in thymic functions, bred and maintained in pathogen free conditions [see J. Natl. Cancer Inst. 51:615-619 (1973)] were used in in vivo experiments. For each experiment, nude mice from the same litter and of the same sex which were over 3 months old and weighed at least 25g were injected or implanted with cancer cells. Examples 6 and 7 were repeated, except they were administered to female nude mice (aged 8-12 weeks) xenografted with human ovarian carcinoma line OVCAR-3. Eight mice in Example 6, and 8 mice in Example 7 were selected for treatment with the thiopyrylium, in an amount of 2.5 and 5 mg/kg respectively, administered IP 1 day after the cancer cells were injected. This was repeated as follows: Three injections per week for 6 weeks. Eight mice were used as the control group and were injected with 0.25 ml of 5% dextrose in water.

[6] = system: MB49 tumor cells; test: Mouse bladder carcinoma, tumor cells and drug given IP (survival, T/C); assay type: in vivo; conditions: normal male BDFI mice, MB49 cells IP
Excerpt: The present invention will now be described by way of example with reference to the accompanying drawings in which: Figures 1-4 are survival plots of cancer-bearing mice treated with the dyes of this invention, compared to a control group of such mice left untreated. In these plots, "% survival" means the percentage of the total group (treated "T" or control "C") still surviving on the day in question. The 50% data point is selected for the T/C calculation, as being the point that is statistically meaningful. MB49 tumor cells, that is, mouse carcinoma cells induced by the carcinogen 7,12-dimethyl benz[a]anthracene, were obtained by conventional processes and injected intraperitoneally into normal male BDFI mice (5 million/mouse). Each drug treated group and control group had 5 mice. In example 8, 5 mg/kg of T-5 was administered 3 times per week for three weeks, starting Day 1. In Example 9, it was 3 mg/kg three times per week for 3 weeks.

IC50 ([2]; Homo sapiens): 0.19 µM
Structure (SMILES): Nc1ccc(-c2cc(-c3ccc(N)cc3)[s+]c(-c3ccc(N)cc3)c2)cc1 [Compound T-2, 2,4,6-Tris(4-aminophenyl)thiopyrylium chloride]
IC50 ([1]; Mus musculus, L1210, 48 h): 0.27 µM

IC50 ([2]; Homo sapiens): 0.017 µM
Structure (SMILES): Nc1ccc(-c2cc(-c3ccccc3)cc(-c3ccc(N)cc3)[s+]2)cc1 [Compound T-3, 2,6-Bis(4-aminophenyl)-4-phenylthiopyrylium chloride]
IC50 ([1]; Mus musculus, L1210, 48 h): 0.033 µM

IC50 ([2]; Homo sapiens): 0.011 µM
Structure (SMILES): COc1ccc(-c2cc(-c3ccc(N)cc3)[s+]c(-c3ccc(N)cc3)c2)cc1 [Compound T-4, 2,6-Bis(4-aminophenyl)-4-(4-methoxyphenyl)-thiopyrylium chloride]
IC50 ([1]; Mus musculus, L1210, 48 h): 0.01 µM

Further lines, the compound ahead of its results:

Structure (SMILES): CN(C)c1ccc(-c2cc(-c3cccc(N)c3)[s+]c(-c3cccc(N)c3)c2)cc1 [Compound T-1, 2,6-Bis(3-aminophenyl)-4-[4-(dimethyl-amino)phenyl]thiopyrylium chloride]
IC50 ([1]; Mus musculus, L1210, 48 h): 0.038 µM
IC50 ([2]; Homo sapiens): 0.37 µM

Structure (SMILES): CN(C)c1ccc(-c2cc(-c3ccccc3)[s+]c(-c3ccc(N(C)C)cc3)c2)cc1 [Compound T-6]
average inhibition in tumor growth [3]: 21.6%

Structure (SMILES): CN(C)c1ccc(-c2cc(-c3ccc(N)cc3)[s+]c(-c3ccc(N)cc3)c2)cc1.[Cl-] [Compound T-5, 2,6-Bis(4-aminophenyl)-4-[4-(N,N-dimethyl-amino)phenyl]thiopyrylium chloride]
T/C ([4]; male athymic Swiss nu/nu mice, LOX cells IP, 5 mg/kg IP Monday, Wednesday & Friday, 11 injections, 50% survival point (Fig. 1)): 366%
Survival (T/C) ([4]; male athymic Swiss nu/nu mice, LOX cells IP, 8 mg/kg IP Wednesday and Saturday for 3 weeks (Fig. 2)): 338%
T/C ([5]; 2.5 mg/kg IP): > 450%
T/C ([5]; 5 mg/kg IP): > 450%
T/C ([6]; 3 mg/kg three times per week for 3 weeks (Example 9, Fig. 4)): 344%
T/C ([6]; 5 mg/kg 3 times per week for three weeks (Example 8, Fig. 4)): 244%
IC50 ([1]; Mus musculus, L1210, 48 h): 0.22 µM
IC50 [1]: 0.14 µM
IC50 [2]: 0.06 to 0.08 µM
IC50 ([2]; Homo sapiens): 0.04 µM

Structure (SMILES): CN(C)c1ccc(-c2cc(-c3ccccc3)[s+]c(-c3ccccn3)c2)cc1 [4-(4-N,N-dimethylaminophenyl-2-phenyl-6-(2-pyridyl)thiopyrylium chloride, reference compound]
T/C against melanoma ([4]; comparative example, xenografted human melanoma, very similar procedures, dose not stated, also listed in the Related Application): 227%
T/C against the ovarian carcinoma ([5]; comparative example, xenografted human ovarian cancer, very similar procedures, dose not stated, also listed in the Related Application): 340%

Source: patent EP0315491A2, “Amino-substituted pyrylium dyes and uses thereof” (EASTMAN KODAK COMPANY (a New Jersey corporation), priority 1987, dated 1989)
